Earlier results in patent US20220339103A1, “Lung-targeted corticosteroid treatment in viral respiratory disease, COVID-19 and ARDS (acute respiratory distress syndrome)” (Bodor Laboratories, Inc., priority 2021, published 2022).
Read-outs that look alike come from different tables or passages of the source.

Columns and labels:
cotton pellet granuloma = settings: for ED50, anti-inflammatory activity in the cotton pellet granuloma test: subcutaneous cotton pellet granuloma test
thymus = settings: for TD50, thymolysis potency: subcutaneous cotton pellet granuloma test
[1] = test system: hypothalamic-pituitary axis; settings: at any Loteprednol Etabonate use
intraocular pressure [2] = settings: long-term use, 28 days or longer; LE 0.2% or 0.5%, prednisolone acetate 1%
Paraoxonase 1 = Paraoxonase 1 (Homo sapiens, UniProt P27169)
Sequence of Paraoxonase 1 (P27169 whole entry): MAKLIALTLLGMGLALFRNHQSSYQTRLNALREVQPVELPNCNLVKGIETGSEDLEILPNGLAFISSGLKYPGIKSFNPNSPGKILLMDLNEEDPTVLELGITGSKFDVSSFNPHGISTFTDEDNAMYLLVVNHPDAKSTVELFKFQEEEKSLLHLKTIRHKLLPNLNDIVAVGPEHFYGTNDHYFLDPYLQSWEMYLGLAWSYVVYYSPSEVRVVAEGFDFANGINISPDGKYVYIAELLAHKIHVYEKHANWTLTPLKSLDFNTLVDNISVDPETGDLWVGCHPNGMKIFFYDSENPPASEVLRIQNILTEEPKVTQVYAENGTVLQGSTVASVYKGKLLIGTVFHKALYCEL

[3] = molecular target: T1, rat lung cytosol glucocorticoid receptors (Rattus norvegicus, UniProt P06536); settings: compared with dexamethasone
T1 construct: from tissue; host or cells: rat lung cytosol
T1 sequence (P06536 1-795): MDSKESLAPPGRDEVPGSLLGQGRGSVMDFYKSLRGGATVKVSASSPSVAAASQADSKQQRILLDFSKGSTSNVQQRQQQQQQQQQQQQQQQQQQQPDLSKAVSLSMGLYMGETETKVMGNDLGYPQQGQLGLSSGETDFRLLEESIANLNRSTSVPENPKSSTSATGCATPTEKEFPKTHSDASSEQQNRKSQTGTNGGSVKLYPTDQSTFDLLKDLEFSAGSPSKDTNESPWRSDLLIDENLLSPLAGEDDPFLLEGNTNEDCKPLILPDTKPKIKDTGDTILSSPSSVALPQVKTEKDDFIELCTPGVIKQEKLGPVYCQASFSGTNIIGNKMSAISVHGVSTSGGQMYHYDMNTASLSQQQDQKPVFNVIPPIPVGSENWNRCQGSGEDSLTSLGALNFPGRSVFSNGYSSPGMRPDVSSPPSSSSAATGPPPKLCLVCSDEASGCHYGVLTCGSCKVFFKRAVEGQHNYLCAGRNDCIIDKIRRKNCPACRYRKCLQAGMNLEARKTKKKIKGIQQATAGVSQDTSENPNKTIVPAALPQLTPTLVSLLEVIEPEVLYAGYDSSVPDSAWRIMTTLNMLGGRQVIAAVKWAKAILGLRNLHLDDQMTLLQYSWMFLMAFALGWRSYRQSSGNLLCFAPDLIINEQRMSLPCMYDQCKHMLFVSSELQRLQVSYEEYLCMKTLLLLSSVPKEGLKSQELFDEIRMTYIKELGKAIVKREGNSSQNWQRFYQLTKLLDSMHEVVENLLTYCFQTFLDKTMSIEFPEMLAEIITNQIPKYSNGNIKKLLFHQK

[4] = 0.2% ophthalmic suspension, 159 patients treated >1 yr
[5] = test system: seasonal allergic rhinitis (SAR) to grass pollen; settings: nasal spray, 100-800 μg, 645 SAR patients, vs PLA, p<0.03
intraocular pressure [6] = settings: corneal transplant patients developing very high IOP
[7] = human vasoconstrictor studies
[8] = betamethasone 17α-valerate = 1.00

Structure (SMILES) | Rel.pot., relative inflammatory effect compared to betamethasone (cotton pellet granuloma; [8]) | ED50, anti-inflammatory activity in the cotton pellet granuloma test (cotton pellet granuloma) [μg/pellet] | Rel.pot., relative timolysis effect (thymus; [8]) | TD50, thymolysis potency (thymus) | Rel.pot., relative timolysis effect (thymus; in vivo) | suppression of the hypothalamic-pituitary axis [1] | IOP elevation greater than or equal to 10 mmHg, share of subjects (intraocular pressure [2]) [%] | hydrolyzing esterase (Paraoxonase 1) | Rel.pot., relative inflammatory effect compared to betamethasone (cotton pellet granuloma; in vivo) | corticosteroid receptor binding [3] | adverse effects of long-term use [4] | change from baseline in two-week average reflective Total Nasal Symptom Score (TNSS) [5] | IOP after replacing prednisolone acetate with LE (intraocular pressure [6]) | topical activity [7]
CCCCC(=O)O[C@]1(C(=O)CO)[C@@H](C)C[C@H]2[C@@H]3CCC4=CC(=O)C=C[C@]4(C)[C@@]3(F)[C@@H](O)C[C@@]21C [Betamethasone 17α-valerate (BV) (0.12%), Betamethasone 17α-valerate] | 1.00 | 84.8 | 1.00 | 212 μg/pellet |  |  |  |  |  |  |  |  |  | 
CCC(=O)O[C@]1(C(=O)CCl)[C@@H](C)C[C@H]2[C@@H]3CCC4=CC(=O)C=C[C@]4(C)[C@@]3(F)C(=O)C[C@@]21C [Clobetasone-17α-propi onate (KP) (0.1%), Clobetasone-17α-propi onate] | 29.70 | 2.9 | 19.30 | 11 μg/pellet |  |  |  |  |  |  |  |  |  | 
CCCC(=O)O[C@]1(C(=O)CO)CC[C@H]2[C@@H]3CCC4=CC(=O)CC[C@]4(C)[C@H]3[C@@H](O)C[C@@]21C [Hydrocortisone 17α-butyrate (HB) (0.1%), Hydrocortisone 17α-butyrate] | 0.70 | 121.0 |  | 369 μg/pellet | 0.57 |  |  |  |  |  |  |  |  | 
CCOC(=O)O[C@]1(C(=O)OCCl)CC[C@H]2[C@@H]3CCC4=CC(=O)C=C[C@]4(C)[C@H]3[C@@H](O)C[C@@]21C [Loteprednol Etabonate, chloromethyl 17α-ethoxycarbonyloxy-11β-hydroxyandrosta-1,4-dien-3-one-17β-carboxylate] |  | 178.0 |  | 10,000 μg/pellet | 0.02 | no significant suppression | 0.64 | hydrolyzed by the HDL-connected Paraoxonase 1 | 0.48 | significantly higher than that of dexamethasone | no reported adverse effects | significantly more efficacious than PLA | all IOP-s were returned to normal | very good topical activity
